Assay results: patent publication EP0388528B1, “Carboximidamide derivatives” (KIRIN BEER KABUSHIKI KAISHA, priority 1988, dated 1990)

Experiments:
[1] = tested on: spontaneous hypertensive rats (SHR); test: Hypotensive effect on spontaneous hypertensive rats (orally); assay type: in vivo; conditions: systolic pressure 2 hours after administration
Protocol: Systolic pressure of the rats fasted for 24 hour was measured by using the tail cuff method before and 2 hours after administration of the compound. The compound was dissolved in a mixed solvent of polyethylene glycol 200 : physiological saline = 1:1. The control group was administered the solvent alone. The change in blood pressure was expressed as percent of the blood pressure before the administration of the compound in respective groups.

isolated rat aortae = test: Vasorelaxing effect on the isolated rat aortae (Referential Example 1)-1); conditions: inhibition of contraction induced by 40 mM KCl
Protocol: The compounds of the present invention were tested for their physiological activities by measuring the tension of isolated rat aortae isometrically.
Thoracic aortae obtained from male Wistar rats (weighing 250-350 g) were cut into ring segments about 3 mm long. The ring preparation was placed in an organ bath filled with 10 ml of Krebs-Ringer solution that was maintained at 37°C and gassed with 95% O₂ - 5% CO₂.
The preparation in the organ bath was allowed to equilibrate under resting tension of 1 g. After equilibration period, the solution in the organ bath was replaced with an isotonic solution containing 40 mM KCl to contract the preparation.
After the contraction induced by KCl had reached plateau, the concentration-response relationship for the test compound was determined by means of cumulative addition.
The relaxation response of the test compounds was expressed as the percent inhibition of the contraction induced by KCl, and the IC₅₀ value, which is a concentration required for inhibiting the contraction induced by KCl to an extent of 50%, was calculated by the Probit method from the concentration-response curve.

isolated heart of rats = test: Myocardiac injury induced by re-perfusion after ischemia (isolated heart of rats); conditions: 1×10⁻⁷ mole/min, after 30 minutes re-perfusion, mean ± SD
Protocol: The cardiac muscle protecting effect of the compound of the present invention was tested by using the isolated heart of rats [test compound: N-cyano-N′-(2-nitroxyethyl)-3-pyridinecarboximidamide (compound (13))]. The Langendorff's method was used in the same manner as in the aforementioned Referential Example 1)-6. The isolated heart was perfused with a perfusate for 30 minutes and then with a perfusate containing the test compound for 10 minutes, and perfusion was stopped so that the heart was in the so-called "ischemic state". Pacing was performed during the ischemia. […] Parameters of cardiac function after the onset of re-perfusion was monitored for 30 minutes, and the heart was quickly freezed. The amount of ATP in the heart muscle was extracted with perchloric acid and determined by HPLC. Nicorandil was used as a control.
The recovery rate of the cardiac function (heart rate × left ventricular pressure) after onset of reperfusion was calculated based on the cardiac function prior to the perfusion of the compound (13) and nicorandil as 100%. The amount of ATP in the heart muscle was also determined.

potassium channel = test: Potassium channel activating effect (86Rb efflux from rat thoracic aorta); conditions: compound 10⁻⁴ M for 8 minutes, percent of the efflux before application
Protocol: Male Wistar rats (weighing 250-350 g) were dehematized to death, and thoracic aortae were rapidly isolated. The aorta was opened along the longitudinal axis to prepare a flat sheet. The preparation was loaded with ⁸⁶Rb in the Krebs-Ringer solution which contained ⁸⁶Rb in the concentration of 10 µCi/ml and was gassed with 95% O₂ - 5% CO₂ at 37°C for 2 hours. The preparation was then transferred to a Krebs-Ringer solution not containing ⁸⁶Rb, and washed to remove excess radioactivity for 18 minutes by refreshing the solution every 2 minutes. Finally the preparation was placed into a Krebs-Ringer solution containing each compound (10⁻⁴ M) for 8 minutes.
The amount of ⁸⁶Rb efflux from the preparation in each period was determined with a γ-counter.
The increment in efflux rate during the application of the compound was expressed as percent of the efflux before the application of the compound.

N#CNC(=NCCO[N+](=O)[O-])c1cccnc1 [Compound (13), N-cyano-N'-(2-nitroxyethyl)-3-pyridinecarboximidamide]
Decreasing Rate of Blood Pressure (%) ([1]; 0.3 mg/kg p.o.): 6.76 ± 1.53% | Decreasing Rate of Blood Pressure (%) ([1]; 0.5 mg/kg p.o.): 9.12 ± 2.41% | Decreasing Rate of Blood Pressure (%) ([1]; 1.0 mg/kg p.o.): 27.31 ± 2.32% | Decreasing Rate of Blood Pressure (%) ([1]; 3.0 mg/kg p.o.): 49.99 ± 2.48% | IC50 (isolated rat aortae): 5.1 µM | Amount of ATP in the heart muscle (µmole/g of dry weight) (isolated heart of rats): 11.12±1.12(6) µmole/g of dry weight | Increment of Efflux (%) (potassium channel): 213.53%
